Species on record: Rattus norvegicus
Assay: Open TG-GATES - Regimen: Daily Repeat
Type: toxicity, organism-based, Sprague-Dawley
Set-up: regimen Daily Repeat, gender Male, age 6 weeks
Conditions: in vivo, po, route gavage; for TP / gamma-GTP / ALP / ALT / AST / CRE / Ca / Cl / DBIL / GLC / IP / K / LDH / RALB / TBIL / TC / TG: tissue Plasma; for APTT / Bas / Eos / Fbg / Ht / Lym / MCH / MCHC / MCV / Mono / PT / Plat / RBC / Ret / WBC / Neu: tissue Blood; for KIDNEY_L / KIDNEY_R / KIDNEY_TOTAL: tissue Kidney
[1] = 10 mg/kg, […], dose level Low, time 28 day
[2] = 30 mg/kg, 72 h, dose level Middle, time 3 day
[3] = 30 mg/kg, […], dose level Middle, time 7 day
[4] = 30 mg/kg, […], dose level Middle, time 14 day
[5] = 30 mg/kg, […], dose level Middle, time 28 day
[6] = 100 mg/kg, 72 h, dose level High, time 3 day
[7] = 100 mg/kg, […], dose level High, time 7 day
[8] = 100 mg/kg, […], dose level High, time 14 day
[9] = 100 mg/kg, […], dose level High, time 28 day

**Q.** Which results are given for `Cn1c(=O)c2c(ncn2C)n(C)c1=O` [CAFFEINE]?
**A.** TP [1]: 6 g/dL; gamma-GTP [1]: 2.4 IU/L; TERMINAL_BW [2]: 223.8 g; APTT [2]: 20.9 s; Bas [2]: 0%; Eos [2]: 0.8%; Fbg [2]: 330 mg/dL; Ht [2]: 41.1%; Lym [2]: 84%; MCH [2]: 21.2 pg; MCHC [2]: 33.4%; MCV [2]: 63.6 fL; Mono [2]: 1.2%; PT [2]: 15.5 s; Plat [2]: 114.5 x10_4/uL; RBC [2]: 646.4 x10_4/ul; Ret [2]: 5.2%; WBC [2]: 61.4 x10_2/uL; KIDNEY_L [2]: 1 g; KIDNEY_R [2]: 1 g; KIDNEY_TOTAL [2]: 2 g; ALP [2]: 1647.8 IU/L; ALT [2]: 40 IU/L; AST [2]: 67.4 IU/L; CRE [2]: 0.2 mg/dL; Ca [2]: 10.7 mg/dL; Cl [2]: 108.8 meq/L; DBIL [2]: 0 mg/dL; GLC [2]: 179.6 mg/dL; IP [2]: 8.1 mg/dL; K [2]: 4.4 meq/L; LDH [2]: 140.2 IU/L; RALB [2]: 3.1 g/dL; TBIL [2]: 0.004 mg/dL; TC [2]: 73.8 mg/dL; TG [2]: 87.6 mg/dL; TP [2]: 5.6 g/dL; gamma-GTP [2]: 1.2 IU/L; TERMINAL_BW [3]: 245.2 g; TERMINAL_BW [4]: 286.3 g; TERMINAL_BW [5]: 380.2 g; APTT [3]: 23.2 s; Bas [3]: 0%; Eos [3]: 0.8%; Fbg [3]: 310.2 mg/dL; Lym [3]: 80.8%; MCHC [3]: 33.6%; MCV [3]: 60.9 fL; Mono [3]: 1.4%; Neu [3]: 16%; PT [3]: 15.2 s; Plat [3]: 115.9 x10_4/uL; RBC [3]: 687.8 x10_4/ul; Ret [3]: 5.4%; WBC [3]: 79 x10_2/uL; APTT [4]: 23.9 s; Bas [4]: 0%; Eos [4]: 1%; Fbg [4]: 309 mg/dL; Ht [4]: 43.4%; Lym [4]: 76.2%; MCH [4]: 19.7 pg; MCHC [4]: 33.7%; MCV [4]: 58.4 fL; Mono [4]: 2%; Neu [4]: 20%; PT [4]: 15.2 s; Plat [4]: 109.9 x10_4/uL; RBC [4]: 743.8 x10_4/ul; Ret [4]: 3.9%; WBC [4]: 108 x10_2/uL; Bas [5]: 0%; Eos [5]: 1%; Fbg [5]: 315.2 mg/dL; Ht [5]: 43.1%; Lym [5]: 79.6%; MCH [5]: 19.4 pg; MCHC [5]: 35%; MCV [5]: 55.4 fL; Mono [5]: 2.4%; PT [5]: 15.5 s; Plat [5]: 100.3 x10_4/uL; RBC [5]: 778.6 x10_4/ul; Ret [5]: 2.7%; WBC [5]: 99.4 x10_2/uL; KIDNEY_L [3]: 1 g; KIDNEY_R [3]: 1 g; KIDNEY_TOTAL [3]: 2.1 g; KIDNEY_L [4]: 1.1 g; KIDNEY_R [4]: 1.2 g; KIDNEY_TOTAL [4]: 2.3 g; KIDNEY_L [5]: 1.5 g; KIDNEY_R [5]: 1.5 g; KIDNEY_TOTAL [5]: 3 g; ALP [3]: 1455 IU/L; ALT [3]: 45.6 IU/L; AST [3]: 75.6 IU/L; CRE [3]: 0.1 mg/dL; Ca [3]: 10.4 mg/dL; Cl [3]: 106.4 meq/L; DBIL [3]: 0 mg/dL; GLC [3]: 182.4 mg/dL; IP [3]: 7.7 mg/dL; K [3]: 4.1 meq/L; LDH [3]: 158.8 IU/L; RALB [3]: 3.1 g/dL; TBIL [3]: 0.01 mg/dL; TC [3]: 74.6 mg/dL; TG [3]: 79.8 mg/dL; TP [3]: 5.7 g/dL; gamma-GTP [3]: 1.6 IU/L; ALP [4]: 1460.4 IU/L; ALT [4]: 47.6 IU/L; AST [4]: 75.6 IU/L; CRE [4]: 0.2 mg/dL; Ca [4]: 10.4 mg/dL; Cl [4]: 106.6 meq/L; DBIL [4]: 0 mg/dL; GLC [4]: 196 mg/dL; IP [4]: 7 mg/dL; K [4]: 4.2 meq/L; LDH [4]: 145.8 IU/L; RALB [4]: 3 g/dL; TBIL [4]: 0.002 mg/dL; TC [4]: 73.2 mg/dL; TG [4]: 139.6 mg/dL; TP [4]: 5.9 g/dL; gamma-GTP [4]: 2.4 IU/L; ALP [5]: 1003 IU/L; ALT [5]: 44.8 IU/L; AST [5]: 71.8 IU/L; CRE [5]: 0.2 mg/dL; Ca [5]: 10.7 mg/dL; Cl [5]: 105.2 meq/L; DBIL [5]: 0 mg/dL; GLC [5]: 189.6 mg/dL; IP [5]: 7.6 mg/dL; K [5]: 3.9 meq/L; LDH [5]: 126.6 IU/L; RALB [5]: 3.2 g/dL; TBIL [5]: 0.01 mg/dL; TC [5]: 85.8 mg/dL; TG [5]: 88.6 mg/dL; TP [5]: 6.1 g/dL; gamma-GTP [5]: 2 IU/L; TERMINAL_BW [6]: 205.8 g; APTT [6]: 22.4 s; Bas [6]: 0%; Eos [6]: 1%; Fbg [6]: 319.6 mg/dL; Lym [6]: 74.4%; MCHC [6]: 33.8%; MCV [6]: 60.6 fL; Mono [6]: 1.6%; Neu [6]: 22.4%; PT [6]: 15.8 s; Plat [6]: 126.2 x10_4/uL; RBC [6]: 686 x10_4/ul; Ret [6]: 4.3%; WBC [6]: 81.5 x10_2/uL; KIDNEY_L [6]: 0.9 g; KIDNEY_R [6]: 0.9 g; KIDNEY_TOTAL [6]: 1.8 g; ALT [6]: 38 IU/L; AST [6]: 70.2 IU/L; CRE [6]: 0.2 mg/dL; Ca [6]: 10.8 mg/dL; Cl [6]: 108.6 meq/L; DBIL [6]: 0 mg/dL; GLC [6]: 169.6 mg/dL; IP [6]: 8.9 mg/dL; K [6]: 4.4 meq/L; LDH [6]: 159.6 IU/L; RALB [6]: 3.2 g/dL; TBIL [6]: 0.018 mg/dL; TG [6]: 43 mg/dL; TP [6]: 5.8 g/dL; gamma-GTP [6]: 1 IU/L; TERMINAL_BW [7]: 226.6 g; TERMINAL_BW [8]: 270 g; TERMINAL_BW [9]: 302.8 g; APTT [7]: 22.8 s; Bas [7]: 0%; Eos [7]: 1%; Fbg [7]: 321.8 mg/dL; Lym [7]: 80.8%; MCHC [7]: 34%; MCV [7]: 60.4 fL; Mono [7]: 2%; Neu [7]: 15.2%; PT [7]: 15.3 s; Plat [7]: 109.2 x10_4/uL; RBC [7]: 705.4 x10_4/ul; Ret [7]: 4.8%; WBC [7]: 100.2 x10_2/uL; APTT [8]: 24.3 s; Bas [8]: 0%; Eos [8]: 0.4%; Fbg [8]: 320.6 mg/dL; Ht [8]: 44.2%; Lym [8]: 80%; MCH [8]: 20.1 pg; MCV [8]: 58.9 fL; Mono [8]: 2%; Neu [8]: 16.6%; PT [8]: 15.5 s; Plat [8]: 110.4 x10_4/uL; RBC [8]: 750.4 x10_4/ul; Ret [8]: 3.5%; WBC [8]: 105.7 x10_2/uL; APTT [9]: 23.7 s; Bas [9]: 0%; Eos [9]: 1%; Fbg [9]: 308.2 mg/dL; Lym [9]: 75.6%; MCH [9]: 19.1 pg; MCHC [9]: 34.9%; MCV [9]: 54.8 fL; Mono [9]: 2.8%; Neu [9]: 18.8%; PT [9]: 15.9 s; Plat [9]: 97.1 x10_4/uL; RBC [9]: 829 x10_4/ul; Ret [9]: 2.1%; WBC [9]: 98.3 x10_2/uL; KIDNEY_L [7]: 1 g; KIDNEY_R [7]: 1 g; KIDNEY_TOTAL [7]: 2 g; KIDNEY_L [8]: 1.2 g; KIDNEY_R [8]: 1.2 g; KIDNEY_TOTAL [8]: 2.4 g; KIDNEY_L [9]: 1.2 g; KIDNEY_R [9]: 1.2 g; KIDNEY_TOTAL [9]: 2.5 g; ALP [7]: 1284.2 IU/L; ALT [7]: 41.2 IU/L; AST [7]: 74.6 IU/L; CRE [7]: 0.1 mg/dL; Ca [7]: 10.4 mg/dL; Cl [7]: 106.2 meq/L; DBIL [7]: 0 mg/dL; GLC [7]: 182.8 mg/dL; IP [7]: 8.5 mg/dL; K [7]: 4.2 meq/L; LDH [7]: 175.6 IU/L; RALB [7]: 3 g/dL; TBIL [7]: 0.016 mg/dL; TC [7]: 84 mg/dL; TG [7]: 77.4 mg/dL; TP [7]: 5.7 g/dL; gamma-GTP [7]: 1.6 IU/L; ALP [8]: 1222.6 IU/L; ALT [8]: 46.8 IU/L; AST [8]: 80.6 IU/L; CRE [8]: 0.2 mg/dL; Ca [8]: 10.6 mg/dL; Cl [8]: 105.8 meq/L; DBIL [8]: 0 mg/dL; GLC [8]: 184.8 mg/dL; IP [8]: 8 mg/dL; K [8]: 4.2 meq/L; LDH [8]: 140.2 IU/L; RALB [8]: 3.1 g/dL; TBIL [8]: 0.022 mg/dL; TC [8]: 80.4 mg/dL; TG [8]: 83.4 mg/dL; TP [8]: 5.8 g/dL; gamma-GTP [8]: 2 IU/L; ALP [9]: 1068.4 IU/L; ALT [9]: 53.8 IU/L; AST [9]: 85.4 IU/L; CRE [9]: 0.2 mg/dL; Ca [9]: 10.4 mg/dL; Cl [9]: 106.2 meq/L; DBIL [9]: 0 mg/dL; GLC [9]: 180.8 mg/dL; IP [9]: 7.8 mg/dL; K [9]: 4.2 meq/L; LDH [9]: 163 IU/L; RALB [9]: 3.2 g/dL; TBIL [9]: 0.034 mg/dL; TC [9]: 80.2 mg/dL; TG [9]: 77 mg/dL; TP [9]: 6 g/dL; gamma-GTP [9]: 2.6 IU/L
